Patent US20230416329A1, “A PEPTIDE WITH DISULFIDE BONDS AND INHIBITORY ACTIVITY AGAINST SERINE PROTEASES, DERIVED HYBRID PEPTIDES THEREOF, AND USES THEREOF” (INSTITUTE OF MATERIA MEDICA , CHINESE ACADEMY OF MEDICAL …, priority 2020, published 2023)
Values after ≈ are worked out from the molar mass of the structure shown. Bridge positions count the residues as written; N and C are the ends. Peptide text beside a SMILES is read from it.

Experiments:
[1] = biological target: T1, trypsin (Bos taurus, UniProt P00760); test: in vitro
T1 sequence (P00760 24-246): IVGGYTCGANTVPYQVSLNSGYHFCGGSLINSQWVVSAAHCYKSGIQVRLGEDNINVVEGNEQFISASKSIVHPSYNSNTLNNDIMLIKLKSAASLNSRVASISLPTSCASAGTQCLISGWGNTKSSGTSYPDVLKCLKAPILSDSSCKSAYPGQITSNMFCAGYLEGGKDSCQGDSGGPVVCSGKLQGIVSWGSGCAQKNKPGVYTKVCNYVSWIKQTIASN
How it was run: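 Peptides were preincubated for 5 min at 37 °C and then digested with 0.05 μg/μL trypsin solution (stock). Remaining intact peptide was quantified as RP-HPLC peak area.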

[2] = biological target: chymotrypsin (Bos taurus, UniProt P00766); test: in vitro; settings: for remaining at 0.025 h, 60 μM / remaining at 0.05 h, 60 μM / remaining at 0.075 h, 60 μM / remaining at 0.1 h, 60 μM / remaining at 0.15 h, 60 μM / remaining at 0.25 h, 60 μM / remaining at 0.5 h, 60 μM / remaining at 1 h, 60 μM: isolated enzyme chymotrypsin, pH 7.8, Residual peak area (%)/chymotrypsin
How it was run: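 Peptide and 0.05 μg/μL chymotrypsin were preincubated at 37 °C for 5 min, then mixed. Aliquots taken from 1.5 up to 60.0 min were quenched with 10% TFA, and remaining peptide was measured as RP-HPLC peak area.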

[3] = test system: P407-induced hyperlipidemia mice; test: Subcutaneous injection of PCSK9 inhibitory peptide, serum total cholesterol in P407-induced hyperlipidemia mice; assay type: in vivo, mouse
Method: The experimental peptide sample was prepared using PEG400 with a final concentration of […], and the final concentration of PEG400 is 20% (w/v). Normal ICR mice were fasted overnight with water ad libitum. The next day, all of the mice were randomly divided into model control group (Con) and polypeptide administration group (2 μmol/kg) according to body weight. Then, all of the mice were intraperitoneally injected with P407 (500 mg/kg) and fed with feed 2 hours later. Six mice were taken as a normal control group (Nor). After 24 hours, the mice in Con were subcutaneously injected with saline containing 20% PEG400, and the mice in the treatment group were given peptides. Then, the blood was taken at different time points after administration to determine the serum total cholesterol (TC) level. In consideration of the complexity of factors affecting serum LDL-C levels, especially the differences between single and long-term administration, the in vivo activity of PCSK9 inhibitory peptide is mainly observed for changes in serum TC levels.

[4] = biological target: elastase (Sus scrofa, UniProt P00772); test: in vitro; settings: for remaining at 0.025 h, 60 μM / remaining at 0.05 h, 60 μM / remaining at 0.075 h, 60 μM / remaining at 0.1 h, 60 μM / remaining at 0.15 h, 60 μM / remaining at 0.25 h, 60 μM / remaining at 0.5 h, 60 μM / remaining at 1 h, 60 μM: isolated enzyme elastase, pH 8, Residual peak area (%)/elastase
How it was run: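 Peptides and elastase (0.5 μg/μL solution) each pre-warmed 5 min at 37° C, then mixed; aliquots taken at 1.5 to 60.0 min and quenched with 10% TFA. Remaining intact peptide quantified as RP-HPLC peak area.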

[5] = biological target: T2, interaction of PCSK9-LDLR (Homo sapiens, UniProt Q8NBP7); test: PCSK9-LDLR in vitro binding assay (inhibitory rate); settings: sample 50 μM, PCSK9 75 ng/mL
T2 construct: purchased MBL Company, Beijing, China CY-8150
Method: Polypeptide PCSK9_1-14 (SEQ ID NOs: 210-223) is dissolved in pure water or DMSO. 85 μL reaction buffer, 5 μL 1 mM polypeptide sample and 10 μL 750 ng/mL PCSK9 protein was pre-incubated at room temperature for 20 minutes before being added to a 96 well plate. The OD450/540 nm value was measured according to the instructions of the PCSK9-LDLR in Vitro Binding Assay Kit (CY-8150, MBL Company, Beijing, China). Solvent control: replace polypeptide with 5 μL solvent. In 100 μL reaction system, the final concentration of the polypeptide and PCSK9 is 50 μM and 75 ng/mL, respectively.
Inhibition rate of polypeptide (%)=(OD450/540 nm(solvent control)−OD450/540 nm (sample))/OD450/540 nm(solvent control)×100

[6] = test system: normal ICR mice; test: In vivo hypoglycemic activity of GLP-1 analogues, subcutaneous administration, oral glucose loading; parameters: species or system mouse; settings: normal ICR mice, 1 μmol/kg s.c., glucose 2 g/kg by gavage
Method: FIG. 21. In vivo hypoglycemic activities of GLP-1 analogues by subcutaneous administration. Normal ICR mice were subcutaneously injected with GLP-1 and its analogues or corresponding volumes of saline (1.0 μmol/kg, n=10). After 30 min, glucose solution (2 g/kg) was administered by gavage, and blood was collected from the tail tip at 30, 60, and 120 min after glucose administration. Blood glucose was measured using glucose oxidase method, and blood glucose values and area under the blood glucose curve (AUC) were calculated at each timepoint.
The day before the experiment, all of the animals were fasted for 15-16 hours with water ad libitum. On the day of the experiment, the animals were randomly divided according to body weight (n=10). Firstly, the blood was collected from the tail tip at 0 hour, and then the animals were administered subcutaneously with GLP-1 analog (SEQ ID NOs: 194-201, 1 μmol/kg) or saline. After 30 minutes, the animals were administered by gavage with glucose solution (2 g/kg), and the blood was collected from the tail tip at 30, 60, and 120 minutes later. Blood glucose was measured using glucose oxidase method. The blood glucose and area under the blood glucose-time curve (AUC) were calculated.

Sequence of elastase (P00772 27-266): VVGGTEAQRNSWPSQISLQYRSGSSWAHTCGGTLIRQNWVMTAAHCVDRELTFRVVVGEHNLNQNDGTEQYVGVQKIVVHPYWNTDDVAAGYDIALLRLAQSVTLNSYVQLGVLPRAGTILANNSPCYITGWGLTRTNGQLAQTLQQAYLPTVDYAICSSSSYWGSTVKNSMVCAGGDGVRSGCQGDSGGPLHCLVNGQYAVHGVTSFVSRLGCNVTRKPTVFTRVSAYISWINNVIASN
T2 sequence (Q8NBP7 153-692): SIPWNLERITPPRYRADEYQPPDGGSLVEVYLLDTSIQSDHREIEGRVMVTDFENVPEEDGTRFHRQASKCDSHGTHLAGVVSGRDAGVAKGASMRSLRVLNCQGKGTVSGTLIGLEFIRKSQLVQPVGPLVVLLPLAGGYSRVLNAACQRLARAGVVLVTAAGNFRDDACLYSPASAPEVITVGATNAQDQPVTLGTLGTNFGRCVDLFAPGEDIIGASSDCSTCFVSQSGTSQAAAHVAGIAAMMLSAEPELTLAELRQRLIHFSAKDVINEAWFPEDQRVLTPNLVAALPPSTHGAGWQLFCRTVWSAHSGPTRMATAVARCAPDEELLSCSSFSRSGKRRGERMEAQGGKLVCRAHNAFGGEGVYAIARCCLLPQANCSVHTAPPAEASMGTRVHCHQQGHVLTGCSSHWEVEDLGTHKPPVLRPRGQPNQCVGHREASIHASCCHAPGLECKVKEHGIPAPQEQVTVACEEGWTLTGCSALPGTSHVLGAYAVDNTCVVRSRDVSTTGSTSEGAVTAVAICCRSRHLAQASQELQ
T2 sequence (Q8NBP7 31-152 partner limits assumed): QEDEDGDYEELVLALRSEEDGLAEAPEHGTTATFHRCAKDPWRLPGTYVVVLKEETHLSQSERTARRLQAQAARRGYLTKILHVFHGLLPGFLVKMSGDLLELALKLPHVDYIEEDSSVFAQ

| Compound | Residual peak area (%)/chymotrypsin [2] [%] | stability towards chymotrypsin hydrolysis (in words) [2] | remaining at 0.025 h, 60 μM [2] [%] | remaining at 0.05 h, 60 μM [2] [%] | remaining at 0.075 h, 60 μM [2] [%] | remaining at 0.1 h, 60 μM [2] [%] | remaining at 0.15 h, 60 μM [2] [%] | remaining at 0.25 h, 60 μM [2] [%] | remaining at 0.5 h, 60 μM [2] [%] | remaining at 1 h, 60 μM [2] [%] | Residual peak area (%)/elastase [4] [%] | stability towards elastase hydrolysis (in words) [4] | remaining at 0.025 h, 60 μM [4] [%] | remaining at 0.05 h, 60 μM [4] [%] | remaining at 0.075 h, 60 μM [4] [%] | remaining at 0.1 h, 60 μM [4] [%] | remaining at 0.15 h, 60 μM [4] [%] | remaining at 0.25 h, 60 μM [4] [%] | remaining at 0.5 h, 60 μM [4] [%] | hypoglycemic activity, subcutaneous injection (in words) [6] | other results |
| --- | --- | --- | --- | --- | --- | --- | --- | --- | --- | --- | --- | --- | --- | --- | --- | --- | --- | --- | --- | --- | --- |
| CC(C)C[C@H](NC(=O)[C@H](Cc1ccc(O)cc1)NC(=O)[C@H](CCC(=O)O)NC(=O)[C@H](CCC(=O)O)NC(=O)[C@H](Cc1c[nH]c2ccccc12)NC(=O)[C@H](CO)NC(=O)[C@@H](NC(=O)[C@H](Cc1ccccc1)NC(=O)[C@@H](NC(=O)[C@@H](N)[C@@H](C)O)C(C)C)[C@@H](C)O)C(=O)N[C@@H](CC(=O)O)C(=O)N[C@@H](Cc1c[nH]c2ccccc12)C(=O)N[C@H](C(=O)O)C(C)C [PCSK9_1, reference compound] | 100.0 ± 0.0 | easily degraded by chymotrypsin and elastase | 82.3 ± 5 | 80.7 ± 3.3 | 80.1 ± 2 | 79.1 ± 5.6 | 75.5 ± 1.6 | 71.2 ± 2.4 | 62.7 ± 2.6 | 47.7 ± 2 | 100.0 ± 0.0 | easily degraded by chymotrypsin and elastase | 95.4 ± 0.9 | 90.6 ± 2.4 | 83.3 ± 1.8 | 85.5 ± 2.7 | 79.6 ± 0.8 | 66.8 ± 0.8 | 52.9 ± 1.5 | – | stability towards trypsin hydrolysis (in words) [1]: stable towards trypsin; serum total cholesterol (TC) level after subcutaneous injection (in words) ([3]; 2 μmol/kg single s.c., P407-induced hyperlipidemia mice): little effect on lowering total cholesterol; TC 30 min ([3]; serum, subcutaneous 2 μmol/kg, 30 min after administration, mean ± sd): 3925 ± 1330 µg/mL (≈ 2340 µM); TC 60 min ([3]; serum, subcutaneous 2 μmol/kg, 60 min after administration, mean ± sd): 3350 ± 1117 µg/mL (≈ 2000 µM); TC 90 min ([3]; serum, subcutaneous 2 μmol/kg, 90 min after administration, mean ± sd): 3832 ± 1259 µg/mL (≈ 2290 µM); TC 120 min ([3]; serum, subcutaneous 2 μmol/kg, 120 min after administration, mean ± sd): 370.4 ± 122.3 mg/dL; remaining at 1 h, 60 μM [4]: 28.9 ± 0.7%; inhibition at 50 µM [5]: 26 ± 10% |
| CC[C@H](C)[C@@H]1NC(=O)[C@@H]2CCCN2C(=O)[C@@H]2CCCN2C(=O)[C@H]([C@@H](C)CC)NC(=O)[C@H](CO)NC(=O)[C@H](CCCCN)NC(=O)[C@H]([C@@H](C)O)NC(=O)[C@H](C)NC(=O)[C@H](CCCNC(=N)N)NC(=O)CNC(=O)[C@@H](NC(=O)[C@@H](NC(=O)[C@H](Cc2ccc(O)cc2)NC(=O)[C@H](CC(=O)O)NC(=O)[C@H](CC(C)C)NC(=O)[C@H](Cc2ccc(O)cc2)NC(=O)[C@H](CCC(=O)O)NC(=O)[C@H](CCC(=O)O)NC(=O)[C@@H](N)Cc2c[nH]c3ccccc23)C(C)C)CSSC[C@@H](C(=O)N[C@@H](Cc2ccccc2)C(=O)NCC(=O)N[C@H](C(=O)N[C@H](C(=O)N[C@@H](Cc2ccccc2)C(=O)N[C@H](C(=O)N[C@@H](CO)C(=O)O)[C@@H](C)O)C(C)C)[C@@H](C)O)NC1=O [PCSK9_6] (H-WEEYLDYVCGRATKSIPPICFGTVFTS-OH; disulfide 9-20) | 100.0 ± 0.0 | certain inhibitory effects on the other two proteases chymotrypsin and elastase | 59.9 ± 8.2 | 47.1 ± 8 | 33.6 ± 3 | 33.9 ± 3.2 | 25.9 ± 3.3 | 14.5 ± 0.8 | 2.2 ± 0.1 | 1 ± 0.9 | 100.0 ± 0.0 | certain inhibitory effects on the other two proteases chymotrypsin and elastase | 62.9 ± 4.8 | 59.3 ± 10.9 | 56.4 ± 5.3 | 55.3 ± 6.8 | 67.8 ± 9.3 | 48.9 ± 9.4 | 39.6 ± 1.2 | – | remaining at 1 h, 60 μM [4]: 48.3 ± 9.4%; inhibition at 50 µM [5]: 87 ± 1.1% |
| Ac-Cys-Gly-Arg-Ala-Thr-Lys-Ser-Ile-Pro-Pro-Ile-Cys-Phe-Gly-Gly-Ile-Pro-Ile-Gly-Gly-His-Ala-Glu-Gly-Thr-Phe-Thr-Ser-Asp-Val-Ser-Ser-Tyr-Leu-Glu-Gly-Gln-Ala-Ala-Lys-Glu-Phe-Ile-Ala-Trp-Leu-Val-Lys-Gly-Arg-Gly-Gly-Lys-NH2 (Ac-CGRATKSIPPICFGGIPIGGHAEGTFTSDVSSYLEGQAAKEFIAWLVKGRGGK-NH2; disulfide 1-12 (inferred)) [Acetylated and Amidated SEQ ID NO: 198] | – | – | – | – | – | – | – | – | – | – | – | – | – | – | – | – | – | – | – | did not show any significant differences in their hypoglycemic activity compared to the unmodified molecules | – |
| Ac-Gly-Arg-Cys-Thr-Lys-Ser-Ile-Pro-Pro-Ile-Cys-Phe-Pro-Gly-Gly-Ile-Pro-Ile-Gly-Gly-His-Ala-Glu-Gly-Thr-Phe-Thr-Ser-Asp-Val-Ser-Ser-Tyr-Leu-Glu-Gly-Gln-Ala-Ala-Lys-Glu-Phe-Ile-Ala-Trp-Leu-Val-Lys-Gly-Arg-Gly-Gly-Lys-NH2 (Ac-GRCTKSIPPICFPGGIPIGGHAEGTFTSDVSSYLEGQAAKEFIAWLVKGRGGK-NH2; disulfide 3-11 (inferred)) [Acetylated and Amidated SEQ ID NO: 194] | – | – | – | – | – | – | – | – | – | – | – | – | – | – | – | – | – | – | – | did not show any significant differences in their hypoglycemic activity compared to the unmodified molecules | – |
| Ac-Gly-Ile-Pro-Ile-Gly-Gly-His-Ala-Glu-Gly-Thr-Phe-Thr-Ser-Asp-Val-Ser-Ser-Tyr-Leu-Glu-Gly-Gln-Ala-Ala-Lys-Glu-Phe-Ile-Ala-Trp-Leu-Val-Lys-Gly-Arg-Gly-Gly-Lys-Gly-Arg-Cys-Thr-Lys-Ser-Ile-Pro-Pro-Ile-Cys-Phe-Pro-NH2 (Ac-GIPIGGHAEGTFTSDVSSYLEGQAAKEFIAWLVKGRGGKGRCTKSIPPICFP-NH2; disulfide 42-50 (inferred)) [Acetylated and Amidated SEQ ID NO: 196] | – | – | – | – | – | – | – | – | – | – | – | – | – | – | – | – | – | – | – | did not show any significant differences in their hypoglycemic activity compared to the unmodified molecules | – |
| Ac-Gly-Ile-Pro-Ile-Gly-Gly-His-Ala-Glu-Gly-Thr-Phe-Thr-Ser-Asp-Val-Ser-Ser-Tyr-Leu-Glu-Gly-Gln-Ala-Ala-Lys-Glu-Phe-Ile-Ala-Trp-Leu-Val-Lys-Gly-Arg-Gly-Gly-Lys-Gly-Cys-Gly-Arg-Ala-Thr-Lys-Ser-Ile-Pro-Pro-Ile-Cys-Phe-NH2 (Ac-GIPIGGHAEGTFTSDVSSYLEGQAAKEFIAWLVKGRGGKGCGRATKSIPPICF-NH2; disulfide 41-52 (inferred)) [Acetylated and Amidated SEQ ID NO: 200] | – | – | – | – | – | – | – | – | – | – | – | – | – | – | – | – | – | – | – | did not show any significant differences in their hypoglycemic activity compared to the unmodified molecules | – |
